Data: patent US7307098B2, “Indole derivatives and drugs containing the same” (Meiji Dairies Corporation, priority 2002, dated 2007)

Tested on: neurospheres which are clusters of neural stem cells
Test: Test Example 1: differentiation of neurospheres into neurons (immunofluorescence, confocal microscope)
Type: cell-based
Conditions: Mus musculus, Neural stem cell; test compound 10^−6M, cultivation typically 24 hours, Anti-MAP2 labeling of neurons, control = 100; read-out: Percentage of neuron in relation to control
Description: Neural stem cell was produced from […] in accordance with the method of Weiss and Reynolds (1996). More specifically, striate body was extirpated from mouse embryo, and the cells were dispersed in a culture medium containing EGF (20 ng/mL). The cells were cultured under the conditions of 5% CO2 and 37° C. for 5 days. The culture was then centrifuged at 400 rpm in Dissociation Medium (manufactured by Sigma) for 5 minutes, and neurospheres which are cluster of the neural stem cells were obtained. The neurospheres were dispersed in the culture medium, and cultivation was conducted under the same conditions to produce secondary neurospheres.
A sterilized cover glass was placed in the well of 24 well plate, treated overnight with polyornithine solution (30 μg/mL), and washed three times with phosphate buffered saline. Neurospheres were inoculated on the cover glass at 20 to 50 cells/cover glass. The test compound that has been adjusted to the concentration of 10^−6M with ethanol was applied to the cover glass, and the cultivation was continued for a period sufficient for differentiation of the neurospheres (typically 24 hours). The indole derivatives obtained in the Examples were used for the test compounds, and the control cells were cultivated without using such test compound.
Sufficiently differentiated neurospheres were fixed with 4% p-formaldehyde, washed with phosphate buffered saline, and after adding Triton-X100, washed again with phosphate buffered saline. Anti-MAP2 (2a+2b) (Sigma) which is a mouse monoclonal antibody used for labeling neurons and Anti-O4 (Boeringher) which is a mouse monoclonal antibody used for labeling oligodendrocytes, and Anti-GFAP (DAKO) which is a rabbit monoclonal antibody used for labeling astrocytes were added, and the cultivation was continued at room temperature for 1 hour or overnight at 4° C. Anti-mouse IgM antibody and fluorescence indicator were added, and cultivation was continued at room temperature for 1 hour. After washing with phosphate buffered saline, the cover glass was placed on a confocal microscope to observe the differentiation of the neurospheres.

Row | Compound | activity at 1 µM
1 | COc1ccc2[nH]cc(CCCCCCCCCCCCCCO)c2c1 [1-1a, n=14, 14-(5-methoxy-1H-indole-3-yl)-tetradecane-1-ol] | 143%
2 | COc1ccc2[nH]cc(CCCCCCCCCCCCCCCCO)c2c1 [1-1a, n=16, 16-(5-methoxy-1H-indole-3-yl)-hexadecane-1-ol] | 168%
3 | COc1ccc2[nH]cc(CCCCCCCCCCCCCCCCCCO)c2c1 [1-1a, n=18, 18-(5-methoxy-1H-indole-3-yl)-octadecane-1-ol] | 169%
4 | COc1cccc2[nH]cc(CCCCCCCCCCCCCCCCO)c12 [1-1b, n=16, 16-(4-methoxy-1H-indole-3-yl)-hexadecane-1-ol] | 133%
5 | COc1ccc2c(CCCCCCCCCCCCCCCCO)c[nH]c2c1 [1-1c, n=16, 16-(6-methoxy-1H-indole-3-yl)-hexadecane-1-ol] | 135%
6 | COc1ccc2[nH]c(CCCCCCCCCCCCCCCCO)cc2c1 [1-2a, n=16, 16-(5-methoxy-1H-indole-2-yl)-hexadecane-1-ol] | 135%
7 | COc1cccc2[nH]c(CCCCCCCCCCCCCCO)cc12 [1-2b, n=14, 14-(4-methoxy-1H-indole-2-yl)-tetradecane-1-ol] | 147%
8 | COc1cccc2[nH]c(CCCCCCCCCCCCCCCCO)cc12 [1-2b, n=16, 16-(4-methoxy-1H-indole-2-yl)-hexadecane-1-ol] | 184%
9 | COc1cccc2cc(CCCCCCCCCCCCCCCCO)[nH]c12 [1-2c, n=16, 16-(7-methoxy-1H-indole-2-yl)-hexadecane-1-ol] | 128%
